Columns and labels:
Caenorhabditis elegans = assay: Antiparasitic activity against Caenorhabditis elegans in a 96 well microplate, movement graded 0 to 3, MIC; type: cell-based; settings: concentration required to give Indication 2 (or 3) for caenorhabditis elegans; incubated at 20° C., observed after 24 and 48 hours
Text: (§1) Methods for determining antiparasitic effects of the compounds disclosed by the present invention are explained below.
(§2) As model insects for simple determination of antiparasitic and insecticidal activities, those insects are desired which can be easily obtained and bred in laboratories, and have no pathogenicity to a human. Caenorhabditis elegans, an unparasitic eelworm widely used in experiments of genetics, was used as a typical steam worm, and artemia salina used as feed for tropical fish and named Brine shrimp, was used instead of insects. […]
(§3) Each well of a 96 well microplate was filled with the solution of the test compound (methanol as a solvent), and the solvent was removed using a vacuum pump, then 250 μl of the assay medium was added to each wells (the assay medium was prepared by dissolving 7.5 mM sodium hydrogencarbonate, 7.5 mM potassium chloride, 7.5 mM calcium chloride dihydrate and 7.5 mM magnesium sulfate heptahydrate in distilled water and adding 0.01% of lecithin to the solution), and then the microplate was shaken using a microplate mixer for 15 minutes. […] The results were compared to those obtained without addition of the test compound, and evaluated by 4 grades. […]

artemia salina = assay: Insecticidal model activity against artemia salina (Brine shrimp) larvae in a 96 well microplate, movement graded 0 to 3, MIC; type: cell-based; settings: concentration required to give Indication 2 (or 3) for artemia salina; incubated at 20° C., observed after 24 and 48 hours
Text: as §1, §2, §3

For CCC(C)C1O[C@]2(C=C[C@@H]1C)C[C@@H]1CC(C/C=C(\C)[C@@H](OC3C[C@H](OC)[C@@H](OC4C[C@H](OC)[C@@H](O)[C@H](C)O4)[C@H](C)O3)[C@@H](C)/C=C/C=C3\COC4[C@H](O)C(C)=CC(C(=O)O1)[C@]34O)O2 (some centres unmarked) [B1a*, avermectin B1a], the “C.E. minimum inhibitory concentration (MIC)” value (Caenorhabditis elegans) was 2 ng/mL and the “A.S. minimum inhibitory concentration (MIC)” value (artemia salina) was 0.5 ng/mL.

From patent US7144866B2, “Avermectin derivatives” (The Kitasato Institute, priority 2000, dated 2006)
